# Assay results as given in patent US20110196383A1, “Atherosclerotic Plaque Dissolution Composition” (Atherolysis Medical, Inc, priority 2009, published 2011).
# “Also recorded” adds a separate entry of the source.
# System: atherosclerotic plaque of an atherosclerotic cadaveric superficial femoral artery
# Test: ex vivo dissolution of atherosclerotic plaque in cadaveric superficial femoral artery
# Set-up: species or system human
# Settings: for dissolution of atherosclerotic plaque: exposure about ten minutes to about thirty minutes
# [1] = about 98% by weight in the chemical composition, about 2% base composition
# [2] = about 90% by weight, about 10% base composition
# [3] = about 2.5% by weight, about 97% base composition
# [4] = about 20% by weight, about 80% base composition such as normal saline
# [5] = about 99.9% by weight in the chemical composition, about 0.1% base composition
molecule,measurement,setting,value
2-octane [Example 2-octane],dissolution of atherosclerotic plaque,[1],showed effectiveness in dissolving atherosclerotic plaque; also recorded: dissolution of atherosclerotic plaque was noted
CC(=O)O [acetic acid],dissolution of atherosclerotic plaque,"about 50% by weight, about 50% base composition",dissolution of atherosclerotic plaque was noted
"CC(=O)Oc1ccccc1C(=O)O [acetylsalicylic acid, reference compound]",dissolution of atherosclerotic plaque,"about 12% by weight in the chemical composition, about 88% base composition",showed effectiveness in dissolving atherosclerotic plaque; also recorded: dissolution of atherosclerotic plaque was noted
S=C=S [carbon disulfide],dissolution of atherosclerotic plaque,[2],showed effectiveness in dissolving atherosclerotic plaque; also recorded: dissolution of atherosclerotic plaque was noted
ClC(Cl)Cl [chloroform],dissolution of atherosclerotic plaque,"about 95% by weight, about 5% base composition",showed effectiveness in dissolving atherosclerotic plaque; also recorded: dissolution of atherosclerotic plaque was noted
Oc1ccc(/C=C\c2cc(O)cc(O)c2)cc1 [cis-resveratrol],dissolution of atherosclerotic plaque,[3],dissolution of atherosclerotic plaque was noted
C=C(C)[C@H]1CC=C(C)CC1 [d-limonene],dissolution of atherosclerotic plaque,[1],showed effectiveness in dissolving atherosclerotic plaque; also recorded: dissolution of atherosclerotic plaque was noted
ClCCl [dichloromethane],dissolution of atherosclerotic plaque,"about 92% by weight, about 8% base composition",showed effectiveness in dissolving atherosclerotic plaque
same,dissolution of atherosclerotic plaque,"about 99.1% by weight, about 0.9% base composition",dissolution of atherosclerotic plaque was noted
CCO [ethanol],dissolution of atherosclerotic plaque,"about 94% by weight, about 6% base composition",dissolution of atherosclerotic plaque was noted
same,effectiveness in dissolving atherosclerotic plaque,concentration of about 94% to about 96%,showed effectiveness in dissolving atherosclerotic plaque
"O=C1[C@H](CC[C@H](O)c2ccc(F)cc2)[C@@H](c2ccc(O)cc2)N1c1ccc(F)cc1 [ezetimibe, reference compound]",dissolution of atherosclerotic plaque,[4],dissolution of atherosclerotic plaque was noted
O=C(O)[C@H](O)[C@@H](O)[C@H](O)[C@H](O)CO [gluconic acid],dissolution of atherosclerotic plaque,"about 80% by weight, about 20% base composition",dissolution of atherosclerotic plaque was noted
OCC(O)CO [glycerine],dissolution of atherosclerotic plaque,about 100% by weight in the chemical composition,showed effectiveness in dissolving atherosclerotic plaque; also recorded: dissolution of atherosclerotic plaque was noted
CC(O)C(=O)O (centres unmarked) [lactic acid],dissolution of atherosclerotic plaque,[1],dissolution of atherosclerotic plaque was noted
CCCCCCCCCCCC[N+](C)(C)CC(O)CS(=O)(=O)[O-] (centres unmarked) [lauryldimethyl hydroxysultaine],dissolution of atherosclerotic plaque,[2],dissolution of atherosclerotic plaque was noted
CO [methanol],dissolution of atherosclerotic plaque,[5],showed effectiveness in dissolving atherosclerotic plaque; also recorded: dissolution of atherosclerotic plaque was noted
CCCCCCCC(=O)O [octanoic acid],dissolution of atherosclerotic plaque,[1],showed effectiveness in dissolving atherosclerotic plaque; also recorded: dissolution of atherosclerotic plaque was noted
CC(O)CO (centres unmarked) [propylene glycol],dissolution of atherosclerotic plaque,[5],showed effectiveness in dissolving atherosclerotic plaque; also recorded: dissolution of atherosclerotic plaque was noted
"Oc1ccc(/C=C/c2cc(O)cc(O)c2)cc1 [resveratrol, 3,5,4′-trihydroxy-trans-stilbene]",effectiveness in dissolving atherosclerotic plaque,dissolved in water or an organic solvent in a concentration of about 0.1% to about 99.9%,showed effectiveness in dissolving atherosclerotic plaque
"CC(C)c1nc(N(C)S(C)(=O)=O)nc(-c2ccc(F)cc2)c1/C=C/[C@@H](O)C[C@@H](O)CC(=O)O [rosuvastatin, reference compound]",dissolution of atherosclerotic plaque,[4],dissolution of atherosclerotic plaque was noted
Cc1ccccc1 [toluene],dissolution of atherosclerotic plaque,"about 40% by weight, about 60% base composition",showed effectiveness in dissolving atherosclerotic plaque; also recorded: dissolution of atherosclerotic plaque was noted
Oc1ccc(/C=C/c2cc(O)cc(O)c2)cc1 [trans-resveratrol],dissolution of atherosclerotic plaque,[3],dissolution of atherosclerotic plaque was noted
